Tests used:
Assay type in all cases: in vivo
[1] = test system: eggs of Tetranychus urticae; assay: Effect on hatching of eggs of Tetranychus urticae, leaf disc method; settings: 5 ppm; for Hatching rate (%): 5 days after insecticide delivery
In short: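 This leaf disc test measured inhibition of Tetranychus urticae egg hatching. Eggs laid on Vicia faba discs were counted microscopically, and the discs were soaked for 10 seconds in compound at 5 ppm, with clear water as control. They were incubated under controlled temperature and humidity with strong indirect light, avoiding condensate. Hatched eggs, leaf damage and developmental abnormalities were recorded five days after delivery.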

eggs of Thrips = assay: Effect on hatching of eggs of Thrips, leaf disc method; settings: 100 ppm; for Hatching rate (%): 5 days after insecticide delivery
In short: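 Egg-bearing Vicia faba leaf discs (diameter 2.0 cm, wetted filter paper beneath) were counted microscopically for baseline eggs. They were then soaked for 10 seconds in water or in test agent at 100 ppm. After moist incubation in lidded dishes, with controlled temperature and humidity and adequate indirect light, hatched larvae were counted five days post-delivery to judge hatching inhibition.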

eggs of Panonychus citri = assay: Effect on hatching of eggs of Panonychus citri, leaf disc method; settings: 1 ppm; for Hatching rate (%), Replicate 1 / Hatching rate (%), Replicate 2 / Hatching rate (%), Replicate 3 / Number of hatched larvae 5 days after insecticide delivery, Replicate 1 / Number of hatched larvae 5 days after insecticide delivery, Replicate 2 / Number of hatched larvae 5 days after insecticide delivery, Replicate 3: Panonychus citri eggs; for Hatching rate (%), Replicate 1 / Hatching rate (%), Replicate 2 / Hatching rate (%), Replicate 3: 5 days after delivery; for Number of hatched larvae 5 days after insecticide delivery, Replicate 1 / Number of hatched larvae 5 days after insecticide delivery, Replicate 2 / Number of hatched larvae 5 days after insecticide delivery, Replicate 3: leaf disc
[2] = test system: eggs of Spodoptera litura; assay: Effect on hatching of eggs of Spodoptera litura, egg piece soaking; settings: 500 ppm; for Hatching rate (%), Replicate 1 / Hatching rate (%), Replicate 2 / Hatching rate (%), Replicate 3 / Number of unhatched larvae 4 days after insecticide delivery, Replicate 1 / Number of unhatched larvae 4 days after insecticide delivery, Replicate 2 / Number of unhatched larvae 4 days after insecticide delivery, Replicate 3: Spodoptera litura eggs; for Hatching rate (%), Replicate 1 / Hatching rate (%), Replicate 2 / Hatching rate (%), Replicate 3: 4 days after delivery; for Number of unhatched larvae 4 days after insecticide delivery, Replicate 1 / Number of unhatched larvae 4 days after insecticide delivery, Replicate 2 / Number of unhatched larvae 4 days after insecticide delivery, Replicate 3: soaked 10 minutes
In short: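 Egg pieces of about 60 eggs were soaked 10 min in test agent at 500 ppm, blotted, then held singly at 24±1 °C, 80±10% RH, 12:12 L:D. Hatched and unhatched eggs were counted on day 4 to give hatching rate and control effect; 3 replicates.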

[3] = Replicate 1, listed as 19′-(S, R)
[4] = Replicate 2, listed as 19′-(S, R)
[5] = Replicate 3, listed as 19′-(S, R)
[6] = Replicate 1, listed as 1-(S, R)
[7] = Replicate 2, listed as 1-(S, R)
[8] = Replicate 3, listed as 1-(S, R)
[9] = Replicate 1, listed as 1-(S, S)
[10] = Replicate 2, listed as 1-(S, S)
[11] = Replicate 3, listed as 1-(S, S)

CC[C@@H](COS(=O)OCCF)Oc1ccc(Cl)cc1Cl (stereo partly drawn) [19′-(S,R)]
Hatching rate (%) [1, 3]: 10.81% | Hatching rate (%) [1, 4]: 11.49% | Number of hatched larvae 5 days after insecticide delivery [1, 3]: 12 | Number of hatched larvae 5 days after insecticide delivery [1, 4]: 10 | Hatching rate (%) (eggs of Thrips; [3]): 9.40% | Hatching rate (%) (eggs of Thrips; [4]): 10.32% | Hatching rate (%) (eggs of Thrips; [5]): 9.52% | Number of hatched larvae 5 days after insecticide delivery (eggs of Thrips; [3]): 11 | Number of hatched larvae 5 days after insecticide delivery (eggs of Thrips; [4]): 13 | Number of hatched larvae 5 days after insecticide delivery (eggs of Thrips; [5]): 8 | Hatching rate (%), Replicate 1 (eggs of Panonychus citri; listed as 19′-(S, R)): 9.57% | Hatching rate (%), Replicate 2 (eggs of Panonychus citri; listed as 19′-(S, R)): 10.28% | Hatching rate (%), Replicate 3 (eggs of Panonychus citri; listed as 19′-(S, R)): 10.08% | Number of hatched larvae 5 days after insecticide delivery, Replicate 1 (eggs of Panonychus citri; listed as 19′-(S, R)): 9 | Number of hatched larvae 5 days after insecticide delivery, Replicate 2 (eggs of Panonychus citri; listed as 19′-(S, R)): 11 | Number of hatched larvae 5 days after insecticide delivery, Replicate 3 (eggs of Panonychus citri; listed as 19′-(S, R)): 12 | Hatching rate (%), Replicate 1 ([2]; listed as 19′-(S, R)): 53.57% | Hatching rate (%), Replicate 2 ([2]; listed as 19′-(S, R)): 53.23% | Hatching rate (%), Replicate 3 ([2]; listed as 19′-(S, R)): 53.73% | Number of unhatched larvae 4 days after insecticide delivery, Replicate 1 ([2]; listed as 19′-(S, R)): 26 | Number of unhatched larvae 4 days after insecticide delivery, Replicate 2 ([2]; listed as 19′-(S, R)): 29 | Number of unhatched larvae 4 days after insecticide delivery, Replicate 3 ([2]; listed as 19′-(S, R)): 31

CC(C)(COS(=O)OCCF)Oc1ccc(Cl)cc1Cl (stereo not drawn) [S-10′]
inhibitory activity on the hatching of eggs of Tetranychus urticae (in words) [1]: strong inhibitory activities | Hatching rate (%) ([1]; Replicate 1): 0.00% | Hatching rate (%) ([1]; Replicate 2): 0.00% | Number of hatched larvae 5 days after insecticide delivery ([1]; Replicate 1): 0 | Number of hatched larvae 5 days after insecticide delivery ([1]; Replicate 2): 0 | inhibitory activity on the hatching of eggs of Thrips (in words) (eggs of Thrips): strong inhibitory activities | Hatching rate (%) (eggs of Thrips; Replicate 1): 0.00% | Hatching rate (%) (eggs of Thrips; Replicate 2): 0.00% | Hatching rate (%) (eggs of Thrips; Replicate 3): 0.00% | Number of hatched larvae 5 days after insecticide delivery (eggs of Thrips; Replicate 1): 0 | Number of hatched larvae 5 days after insecticide delivery (eggs of Thrips; Replicate 2): 0 | Number of hatched larvae 5 days after insecticide delivery (eggs of Thrips; Replicate 3): 0 | inhibitory effect on the hatching of eggs of Panonychus citri (in words) (eggs of Panonychus citri): good inhibitory effects | Hatching rate (%), Replicate 1 (eggs of Panonychus citri): 0.00% | Hatching rate (%), Replicate 2 (eggs of Panonychus citri): 0.00% | Hatching rate (%), Replicate 3 (eggs of Panonychus citri): 0.00% | Number of hatched larvae 5 days after insecticide delivery, Replicate 1 (eggs of Panonychus citri): 0 | Number of hatched larvae 5 days after insecticide delivery, Replicate 2 (eggs of Panonychus citri): 0 | Number of hatched larvae 5 days after insecticide delivery, Replicate 3 (eggs of Panonychus citri): 0 | inhibitory activity on the hatching of eggs of Spodoptera litura (in words) [2]: good inhibitory activities | Hatching rate (%), Replicate 1 [2]: 22.03% | Hatching rate (%), Replicate 2 [2]: 21.88% | Hatching rate (%), Replicate 3 [2]: 21.67% | Number of unhatched larvae 4 days after insecticide delivery, Replicate 1 [2]: 46 | Number of unhatched larvae 4 days after insecticide delivery, Replicate 2 [2]: 50 | Number of unhatched larvae 4 days after insecticide delivery, Replicate 3 [2]: 47

C[C@@H](COS(=O)OCCF)Oc1ccc(Cl)cc1Cl (stereo partly drawn) [1-(S,R)]
Hatching rate (%) [1, 6]: 10.87% | Hatching rate (%) [1, 7]: 12.16% | Number of hatched larvae 5 days after insecticide delivery [1, 6]: 10 | Number of hatched larvae 5 days after insecticide delivery [1, 7]: 9 | Hatching rate (%) (eggs of Thrips; [6]): 12.06% | Hatching rate (%) (eggs of Thrips; [7]): 8.33% | Hatching rate (%) (eggs of Thrips; [8]): 10.28% | Number of hatched larvae 5 days after insecticide delivery (eggs of Thrips; [6]): 17 | Number of hatched larvae 5 days after insecticide delivery (eggs of Thrips; [7]): 8 | Number of hatched larvae 5 days after insecticide delivery (eggs of Thrips; [8]): 11 | Hatching rate (%), Replicate 1 (eggs of Panonychus citri; listed as 1-(S, R)): 5.83% | Hatching rate (%), Replicate 2 (eggs of Panonychus citri; listed as 1-(S, R)): 5.75% | Hatching rate (%), Replicate 3 (eggs of Panonychus citri; listed as 1-(S, R)): 6.06% | Number of hatched larvae 5 days after insecticide delivery, Replicate 1 (eggs of Panonychus citri; listed as 1-(S, R)): 6 | Number of hatched larvae 5 days after insecticide delivery, Replicate 2 (eggs of Panonychus citri; listed as 1-(S, R)): 5 | Number of hatched larvae 5 days after insecticide delivery, Replicate 3 (eggs of Panonychus citri; listed as 1-(S, R)): 8 | Hatching rate (%), Replicate 1 ([2]; listed as 1-(S, R)): 62.30% | Hatching rate (%), Replicate 2 ([2]; listed as 1-(S, R)): 63.08% | Hatching rate (%), Replicate 3 ([2]; listed as 1-(S, R)): 60.34% | Number of unhatched larvae 4 days after insecticide delivery, Replicate 1 ([2]; listed as 1-(S, R)): 23 | Number of unhatched larvae 4 days after insecticide delivery, Replicate 2 ([2]; listed as 1-(S, R)): 24 | Number of unhatched larvae 4 days after insecticide delivery, Replicate 3 ([2]; listed as 1-(S, R)): 23

C[C@@H](COS(=O)OCCF)Oc1ccc(Cl)cc1Cl (stereo partly drawn) [1-(S,S)]
inhibitory activity on the hatching of eggs of Tetranychus urticae (in words) [1]: strong inhibitory activities | Hatching rate (%) [1, 9]: 0.00% | Hatching rate (%) [1, 10]: 0.00% | Number of hatched larvae 5 days after insecticide delivery [1, 9]: 0 | Number of hatched larvae 5 days after insecticide delivery [1, 10]: 0 | inhibitory activity on the hatching of eggs of Thrips (in words) (eggs of Thrips): strong inhibitory activities | Hatching rate (%) (eggs of Thrips; [9]): 0.00% | Hatching rate (%) (eggs of Thrips; [10]): 0.00% | Hatching rate (%) (eggs of Thrips; [11]): 0.00% | Number of hatched larvae 5 days after insecticide delivery (eggs of Thrips; [9]): 0 | Number of hatched larvae 5 days after insecticide delivery (eggs of Thrips; [10]): 0 | Number of hatched larvae 5 days after insecticide delivery (eggs of Thrips; [11]): 0 | inhibitory effect on the hatching of eggs of Panonychus citri (in words) (eggs of Panonychus citri): good inhibitory effects | Hatching rate (%), Replicate 1 (eggs of Panonychus citri; listed as 1-(S, S)): 0.00% | Hatching rate (%), Replicate 2 (eggs of Panonychus citri; listed as 1-(S, S)): 0.00% | Hatching rate (%), Replicate 3 (eggs of Panonychus citri; listed as 1-(S, S)): 0.00% | Number of hatched larvae 5 days after insecticide delivery, Replicate 1 (eggs of Panonychus citri; listed as 1-(S, S)): 0 | Number of hatched larvae 5 days after insecticide delivery, Replicate 2 (eggs of Panonychus citri; listed as 1-(S, S)): 0 | Number of hatched larvae 5 days after insecticide delivery, Replicate 3 (eggs of Panonychus citri; listed as 1-(S, S)): 0 | inhibitory activity on the hatching of eggs of Spodoptera litura (in words) [2]: good inhibitory activities | Hatching rate (%), Replicate 1 ([2]; listed as 1-(S, S)): 23.73% | Hatching rate (%), Replicate 2 ([2]; listed as 1-(S, S)): 26.15% | Hatching rate (%), Replicate 3 ([2]; listed as 1-(S, S)): 20.69% | Number of unhatched larvae 4 days after insecticide delivery, Replicate 1 ([2]; listed as 1-(S, S)): 45 | Number of unhatched larvae 4 days after insecticide delivery, Replicate 2 ([2]; listed as 1-(S, S)): 48 | Number of unhatched larvae 4 days after insecticide delivery, Replicate 3 ([2]; listed as 1-(S, S)): 46
